The target of this test is Phosphodiesterase 4 (Homo sapiens, UniProt P27815+Q08499+Q07343+Q08493). In words: Inhibition of PDE4 in Homo sapiens (human) U937 cells. The conditions noted are these: u-937. The test is classed as cell-based.

As for `COc1ccc(C(=O)Nc2c(Cl)cncc2Cl)c2c1ncn2C`, the pIC50 stood at 5.

`CO/N=C(\C)c1ccc2c(C(=O)Nc3c(Cl)cncc3Cl)ccc(OC)c2n1`: the pIC50 is 6.678.

What is called pIC50 is the negative decadic logarithm of the IC50, by convention in mol/L. A lower pIC50 goes with a high IC50.
